Test results published in ChEMBL document CHEMBL1130964, “Naphthoquinone analogs as inactivators of cdc25 phosphatase” (1998).

Key:
Type in all cases: functional
[1] = test system: SK-HEP1; test: The compound was evaluated for the percent cell cycle fraction when human hepatoma SK hep-1 cells were treated with the compound for 0 hr at a concentration of 4 uM in the G2/M phase of cell cycle
[2] = test system: SK-HEP1; test: The compound was evaluated for the percent cell cycle fraction when human hepatoma SK hep-1 cells were treated with the compound for 24 hours at a concentration of 4 uM in the G2/M phase of cell cycle
[3] = test system: SK-HEP1; test: The compound was evaluated for the percent cell cycle fraction when human hepatoma SK hep-1 cells were treated with the compound for 6 hours at a concentration of 4 uM in the S phase of cell cycle
[4] = organism: Homo sapiens; test: The compound was evaluated for the percent cell cycle fraction when human hepatoma SK hep-1 cells were treated with the compound for 24 hours at a concentration of 4 uM in the G1 phase of cell cycle
[5] = organism: Homo sapiens; test: The compound was evaluated for the percent cell cycle fraction when human hepatoma SK hep-1 cells were treated with the compound for 6 hours at a concentration of 4 uM in the G1 phase of cell cycle
[6] = test system: SK-HEP1; test: The compound was evaluated for the percent cell cycle fraction when human hepatoma SK hep-1 cells were treated with the compound for 24 hours at a concentration of 4 uM in the S phase of cell cycle
[7] = test system: SK-HEP1; test: The compound was evaluated for the percent cell cycle fraction when human hepatoma SK hep-1 cells were treated with the compound for 12 hours at a concentration of 4 uM in the G2/M phase of cell cycle
[8] = organism: Homo sapiens; test: The compound was evaluated for the percent cell cycle fraction when human hepatoma SK hep-1 cells were treated with the compound for 12 hours at a concentration of 4 uM in the S phase of cell cycle
[9] = test system: SK-HEP1; test: The compound was evaluated for the percent cell cycle fraction when human hepatoma SK hep-1 cells were treated with the compound for 0 hr at a concentration of 4 uM in the G1 phase of cell cycle
[10] = organism: Homo sapiens; test: The compound was evaluated for the percent cell cycle fraction when human hepatoma SK hep-1 cells were treated with the compound for 6 hours at a concentration of 4 uM in the G2/M phase of cell cycle
[11] = organism: Homo sapiens; test: The compound was evaluated for the percent cell cycle fraction when human hepatoma SK hep-1 cells were treated with the compound for 0 hr at a concentration of 4 uM in the S phase of cell cycle
[12] = test system: SK-HEP1; test: The compound was evaluated for the percent cell cycle fraction when human hepatoma SK hep-1 cells were treated with the compound for 12 hours at a concentration of 4 uM in the G1 phase of cell cycle

O=C1C=CC(=O)c2c(O)c(Cl)c(Cl)c(O)c21
Cell cycle fraction [1]: 31% | Cell cycle fraction [2]: 16% | Cell cycle fraction [3]: 20% | Cell cycle fraction [4]: 71% | Cell cycle fraction [5]: 54% | Cell cycle fraction [6]: 13% | Cell cycle fraction [7]: 16% | Cell cycle fraction [8]: 14% | Cell cycle fraction [9]: 48% | Cell cycle fraction [10]: 26% | Cell cycle fraction [11]: 21% | Cell cycle fraction [12]: 70%
